Laboratory results taken from PMC8634379, “From the Design to the In Vivo Evaluation of Benzohomoadamantane-Derived Soluble Epoxide Hydrolase Inhibitors for the Treatment of Acute Pancreatitis” (Journal of Medicinal Chemistry, 2021).

Tested on: cerulein-induced acute pancreatitis
Experiment: In vivo efficacy, cerulein-induced acute pancreatitis murine model
Set-up: species or system C57BL/6 male mice
Excerpt: Forty-one male C57BL/6 mice (8-week-old; approximately 24 g) were supplied by Envigo (Barcelona, Spain) (Ref 16512). During the experimental procedure, the animals were identified with a permanent marker (tail code numbers). Upon arrival, the animals were housed in groups of 8–9 animals/cage in polysulfone maintenance cages (480 × 265 × 210 mm, with a surface area of 940 cm^2) with wire tops and wood chip bedding. The animals were kept in an environmentally controlled room (ventilation, temperature 22 ± 2 °C, and humidity 35–65%) on a 12 h light/dark cycle. They underwent a period of 7 days of acclimatization between the date of arrival and the start of the procedure. […] The maintenance diet was supplied by Harlan Interfauna Ibérica S.L. (2018 Harlan Teklad Global Diets). Diet was provided to the animals ad libitum, but they were fasted overnight before the first cerulein injection, and food was replaced after the last cerulein injection. Tap water was supplied by CASSA (Servei d’Aigües de Sabadell) ad libitum. The animals were maintained in accordance with the European Directive for the Protection of Vertebrate Animals Used for Experimental and other Scientific Purposes (86/609/EU). Decree 214/1997 of 30th July. Ministry of agriculture, livestock and fishing of the Autonomous Government of Catalonia, Spain. Royal Decree 53/2013 of 1st February (Spain). All the experimental procedures were approved by the Ethical Committee on human and animal experimentation (CEEAH) of Universitat Autònoma de Barcelona (UAB) (procedure number: 4107) and by the Animal Experimentation Commission of the Generalitat de Catalunya (Catalan Government) (DAAM: 10146). The test item was dissolved in vehicle 10% 2-hydroxypropyl-β-cyclodextrin (CAS 128446-35-5) Sigma-Aldrich (Ref 332607). The vehicle was prepared the day before and kept at 4 °C. Pancreatitis induction: Mice (n = 41) were weighed, identified by a distinct number at the base of the tail, and fasted overnight. Cerulein (cerulein and cerulein + 22 groups) (50 μg/kg, prepared in 0.9% NaCl) or vehicle (0.9% NaCl) (control group) were intraperitoneally injected (V = 5 mL/kg) 12 consecutive times, at 1 h intervals (h = 0–11). Food was replaced after the last injection. A satellite experiment was designed where animals (n = 3) were distributed in control, cerulein, and cerulein + 22-treated groups. Pancreatitis was induced by seven injections of cerulein (or vehicle in the control group) at 1 h intervals (h = 0–6). Treatments: the test item was administered intraperitoneally in one injection to 22_03 (0.3 mg/kg) and 22_01 (0.1 mg/kg) groups at 14 h after the first cerulein injection. Animals from the control and cerulein groups received vehicle administration (10% 2-hydroxypropyl-β-cyclodextrin) (V = 10 mL/kg). Extra groups were treated 2 h after the first cerulein injection: 22 (0.3 mg/kg), control, and cerulein groups (10% 2-hydroxypropyl-β-cyclodextrin). Study end: 24 h after the first cerulein injection, animals were weighed and anesthetized with isoflurane. Blood was collected from the vena cava in an Eppendorf containing K2-EDTA and centrifuged at 10,000 rpm for 5 min for plasma collection. Plasma was stored at −80 °C until analysis. The mice were sacrificed by cervical dislocation and the pancreases were dissected and weighed. Pancreases from three animals were frozen in liquid N2 and stored at −80 °C until analysis. Pancreases from five mice were sectioned and one part was placed in 10% formalin and sent to Anapath (Granada, Spain) for histology analysis and the other was immediately placed in RNAse-free eppendorfs, frozen in N2, and stored at −80 °C for gene expression assays.
Pancreatic samples were treated with increasing grade alcohols and two xylol baths and embedded in paraffin. They were subsequently cut using a microtome and processed for staining. […]

[1] = Cerulein + 22 (0.3 mg/Kg), samples 1-5, score 0 (no changes) to 4 (very serious)

With O=C(NC12CC3CC(Cl)(CC(C1)c1ccccc13)C2)N[C@H]1CC[C@H](Oc2ccc(C(=O)O)cc2)CC1 [Compound 22, 4-[((1r,4r)-4-(3-(9-Chloro-5,6,8,9,10,11-hexahydro-7H-5,9:7,11-dimethanobenzo[9]annulen-7-yl)ureido)cyclohexyl)oxy]benzoic Acid] the “body weight change at the end of the study” value (22 0.1 mg/kg IP single dose, did not reach statistical significance) was “increased body weight”, the “body weight change at the end of the study” value (22 0.3 mg/kg IP single dose, p < 0.01 vs Cerulein group) was “increased body weight” and the “histologic score: Hemorrhage” value (Cerulein + 22 (0.1 mg/Kg), samples 1-5, score 0 (no changes) to 4 (very serious)) was 0. The “histologic score: Hemorrhage” value [1] was 0, the “histologic score: Mononuclear inflammatory cells” value [1] was 0 and the “histologic score: Necrosis” value [1] was 0. For the same molecule, the “histologic analysis of pancreas, effect on cerulein-induced damage” value (both doses (0.1 and 0.3 mg/kg)) was “ameliorated cerulein-induced effects” and the “histologic analysis of pancreas, effect on cerulein-induced damage” value (higher dose (0.3 mg/kg)) was “more efficiently reversed the pancreatic damage, edema, and neutrophil infiltration”.
